Assay results taken from patent US8822496B2, “Dosage regimens for HCV combination therapy” (priority 2009, dated 2014).
Where a name gives a salt, the structure may show the parent alone. Read-outs that look alike come from different tables or passages of the source.

Legend:
HCV genotype-1 [1] = details: for Virologic rebound during treatment / Virologic rebound during treatment (patients with rebound/patients in group): first 28 days; for Below Limit of Quantification at D 28 (number of patients) / Below Limit of Quantification at D 28 (percent of patients): less than 25 IU per ml of serum
Protocol: All patients were monitored for safety and tolerability of study drugs. The primary endpoint was a ≧2 log 10 reduction in HCV viral load (VL) from baseline at any time up to Day 28. Plasma HCV-RNA levels were measured using the Roche COBAS® TaqMan® assay (LLOQ 25 IU/mL). The treatment experienced patients in this study included P+R null responders and partial respoders. After Day 28, at the discretion of the investigator, patients could continue to receive standard of care treatment, i.e., P+R.

[2] = Trough plasma concentration of Compound (1) with or without two-fold first loading dose; format: in vivo, human; details: TE patients; for Mean steady state trough of Days 10-29 / Geometric mean trough plasma concentration: + P+R
From the text: Trough (pre-dose) plasma samples were collected on Days 2, 3, 4, 6, 10, 14, 21, 28 and 29 following the initiation of combination treatment on Day 1.

HCV NS3 protease = HCV NS3 protease inhibitor EC50 (background statement); format: cell-based
HCV genotype-1 [3] = assay: Clinical study with treatment-naive patients: monotherapy 14 days, then triple combination with P+R 14 days; details: for VL rebound during treatment: first 14 days of monotherapy, all dose groups
Protocol: Plasma HCV-RNA levels were measured with Roche COBAS® TaqMan® assay (LLOQ 25 IU/m L). After Day 28, at the discretion of the investigator, patients could continue to receive standard of care treatment, i.e., P+R.

[4] = 240 mg QD SGC with first 480 mg loading dose, Day 3
[5] = 240 mg QD SGC with first 480 mg loading dose, Day 4
[6] = 240 mg QD SGC with first 480 mg loading dose, Day 6
[7] = 240 mg QD solution (PiB) without loading dose, Day 3
[8] = 240 mg QD solution (PiB) without loading dose, Day 4
[9] = 240 mg QD solution (PiB) without loading dose, Day 6

SMILES: C=C[C@@H]1C[C@]1(NC(=O)[C@@H]1C[C@H](Oc2cc(-c3csc(NC(=O)C(C)C)n3)nc3c(Br)c(OC)ccc23)CN1C(=O)[C@@H](NC(=O)OC1CCCC1)C(C)(C)C)C(=O)O [Compound (1)]
- Virologic rebound during treatment (HCV genotype-1 [1]; 240 mg qd + P+R): No rebound
- Mean steady state trough of Days 10-29 ([2]; 240 mg QD SGC with first 480 mg loading dose): 5,774
- Geometric mean trough plasma concentration [2, 5]: 5,640
- Geometric mean trough plasma concentration [2, 6]: 7,060
- Geometric mean trough plasma concentration ([2]; 240 mg QD SGC with first 480 mg loading dose, Day 10): 6,580
- Geometric mean trough plasma concentration ([2]; 240 mg QD SGC with first 480 mg loading dose, Day 14): 5,590
- Geometric mean trough plasma concentration ([2]; 240 mg QD SGC with first 480 mg loading dose, Day 21): 5,410
- Geometric mean trough plasma concentration ([2]; 240 mg QD SGC with first 480 mg loading dose, Day 28): 5,960
- % of mean steady state trough of Days 10-29 [2, 4]: 81.2%
- % of mean steady state trough of Days 10-29 [2, 5]: 97.7%
- % of mean steady state trough of Days 10-29 [2, 6]: 122.3%
- Geometric mean trough plasma concentration ([2]; 240 mg QD soft gelatin capsules (SGC) with a first 480 mg loading dose, Day 2): 3,470
- Geometric mean trough plasma concentration ([2]; 240 mg QD solution (PiB) without a first 480 mg loading dose, Day 2): 710
- Geometric mean trough plasma concentration [2, 8]: 2,420
- Geometric mean trough plasma concentration [2, 9]: 2,950
- Geometric mean trough plasma concentration ([2]; 240 mg QD solution (PiB) without loading dose, Day 10): 2,930
- Geometric mean trough plasma concentration ([2]; 240 mg QD solution (PiB) without loading dose, Day 14): 2,850
- % of mean steady state trough of Days 10-29 [2, 7]: 49.2%
- % of mean steady state trough of Days 10-29 [2, 9]: 87.4%

SMILES: C=C[C@@H]1C[C@]1(NC(=O)[C@@H]1C[C@H](Oc2cc(-c3csc(NC(=O)C(C)C)n3)nc3c(Br)c(OC)ccc23)CN1C(=O)[C@@H](NC(=O)OC1CCCC1)C(C)(C)C)C(=O)O [Compound (1) sodium salt]
- Serious AE (HCV genotype-1 [3]; 20 mg dose cohort, 6 days after initiating P+R): One serious AE, asthenia
- Discontinuation of treatment due to adverse events (HCV genotype-1 [3]; during monotherapy): No pts discontinued treatment
- VL rebound during treatment (HCV genotype-1 [3]): a majority of patients
- VL rebound during treatment (HCV genotype-1 [3]; listed as Compound (1) (sodium salt)): a majority of the patients
- Tolerability (HCV genotype-1 [3]; treatment-naive pts, 20-240 mg qd, monotherapy 14 days then + P+R 14 days): well tolerated
- Maximal decline D 1-14 (HCV genotype-1 [1]; 48 mg QD, N = 6, + P+R): 4.4 ×log10
- Maximal decline D 1-14 (HCV genotype-1 [1]; 120 mg QD, N = 7, + P+R): 4.5 ×log10
- Mean Decline at D 14 (HCV genotype-1 [1]; 120 mg QD, N = 7, + P+R): 4.3 ×log10
- Virologic rebound during treatment (HCV genotype-1 [1]; 240 mg qd + P+R, listed as Compound (1) (sodium salt)): no rebound
- Serious or severe adverse events (HCV genotype-1 [1]; 48-240 mg qd + P+R, 28 days): no serious or severe adverse events
- Discontinuation of treatment due to an AE (HCV genotype-1 [1]; AE: anxiety): One subject discontinued treatment
- Tolerability (HCV genotype-1 [1]; treatment-experienced pts, 48-240 mg qd + P+R, 28 days): well tolerated
